# Measured values: patent US20260317356A1, “SMALL MOLECULE MODULATORS OF OGG1” (AZKARRA THERAPEUTICS, INC., priority 2023, published 2026)
# Target: hOGG1 (Homo sapiens, UniProt O15527)
# Assay: Biochemical fluorescence assay to measure enzymatic activity of hOGG1 (OGG1/APEX IC50)
# Parameters: Protein His-hOGG1 (12-323) was prepared; His (N); host or cells: E. coli
# Settings: 1 nM OGG1+2 nM APEX+6 nM dsDNA (8-oxo-dG substrate); pH 7.5; RT 40 min; read-out: OGG1/APEX IC50
# Summary of the method: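 Coupled glycosylase/AP-endonuclease read-out: 8-oxo-dG-containing dsDNA (6 nM) cleaved by 1 nM His-hOGG1 (12-323) plus 2 nM APEX1 over 40 min at room temperature, after 20 min enzyme–compound preincubation; buffer 20 mM Tris pH 7.5, 100 mM KCl, 0.1% BSA, 0.01% Tween. IC50 comes from sigmoidal 3-parameter fitting of % inhibition derived from TAMRA signal.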
# Sequence of hOGG1 (O15527 12-323): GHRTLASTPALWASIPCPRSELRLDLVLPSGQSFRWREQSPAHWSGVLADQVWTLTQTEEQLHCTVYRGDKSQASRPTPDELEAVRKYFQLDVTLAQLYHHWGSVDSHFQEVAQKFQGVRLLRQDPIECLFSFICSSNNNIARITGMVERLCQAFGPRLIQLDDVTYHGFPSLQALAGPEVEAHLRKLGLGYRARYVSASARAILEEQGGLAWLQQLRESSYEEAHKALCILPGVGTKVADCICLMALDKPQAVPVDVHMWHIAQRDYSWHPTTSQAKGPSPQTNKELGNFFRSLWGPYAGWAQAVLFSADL
row,Compound,IC50 [nM]
1,"COc1cc(NC(=O)[C@H]2CC[C@@H](N3Cc4c(ccc(OCCN(C)C)c4C)NC3=O)CC2)ccc1C [Example 40, (1s,4s)-4-(6-(2-(Dimethylamino)ethoxy)-5-methyl-2-oxo-1,2-dihydroquinazolin-3(4H)-yl)-N-(3-methoxy-4-methylphenyl)cyclohexanecarboxamide]",1000 to 10000
2,"COCc1ccc2c(c1C)CN([C@H]1CC[C@@H](C(=O)Nc3ccc(C)c(OC)c3)CC1)C(=O)N2 [Example 48, (1s,4s)-N-(3-Methoxy-4-methylphenyl)-4-(6-(methoxymethyl)-5-methyl-2-oxo-1,2-dihydroquinazolin-3(4H)-yl)cyclohexanecarboxamide]",1000 to 10000
3,"Cc1ccc(NC(=O)[C@H]2CC[C@@H](N3Cc4c(C)cccc4C3=O)CC2)cc1O [Example 222, (1s,4s)-N-(3-Hydroxy-4-methylphenyl)-4-(4-methyl-1-oxoisoindolin-2-yl)cyclohexanecarboxamide]",1000 to 10000
4,"Cc1cccc2c1CN([C@H]1CC[C@@H](C(=O)Nc3ccn(C)c(=O)c3)CC1)C2=O [Example 252, (1s,4s)-4-(4-Methyl-1-oxoisoindolin-2-yl)-N-(1-methyl-2-oxo-1,2-dihydropyridin-4-yl)cyclohexanecarboxamide]",> 10000
5,"Cc1cccc2c1CN([C@H]1CC[C@@H](C(=O)Nc3ccc(O)cc3)CC1)C2=O [Example 229, (1s,4s)-N-(4-Hydroxyphenyl)-4-(4-methyl-1-oxoisoindolin-2-yl)cyclohexanecarboxamide]",1000 to 10000
6,"Cc1cnc(NC(=O)[C@H]2CC[C@@H](N3Cc4c(C)cccc4C3=O)CC2)s1 [Example 235, (1s,4s)-4-(4-Methyl-1-oxoisoindolin-2-yl)-N-(5-methylthiazol-2-yl)cyclohexanecarboxamide]",> 10000
7,"Cc1cccc2c1CN([C@H]1CC[C@@H](C(=O)Nc3ccc(=O)n(C)c3)CC1)C2=O [Example 246, (1s,4s)-4-(4-Methyl-1-oxoisoindolin-2-yl)-N-(1-methyl-6-oxo-1,6-dihydropyridin-3-yl)cyclohexanecarboxamide]",> 10000
8,"O=C1c2cccc(Br)c2CN1[C@H]1CC[C@@H](C(=O)Nc2ccc3c(c2)OC(F)(F)O3)CC1 [Example 186, (1s,4s)-4-(4-Bromo-1-oxoisoindolin-2-yl)-N-(2,2-difluorobenzo[d][1,3]dioxol-5-yl)cyclohexanecarboxamide]",> 10000
9,"COc1cc(NC(=O)[C@H]2CC[C@@H](N3Cc4c(OC)cccc4C3=O)CC2)ccc1C [Example 161, (1s,4s)-4-(4-Methoxy-1-oxoisoindolin-2-yl)-N-(3-methoxy-4-methylphenyl)cyclohexanecarboxamide]",1000 to 10000
10,"Cc1ccc(NC(=O)[C@H]2CC[C@@H](N3Cc4c(C)cccc4C3=O)CC2)cc1CO [Example 126, (1s,4s)-N-(3-(Hydroxymethyl)-4-methylphenyl)-4-(4-methyl-1-oxoisoindolin-2-yl)cyclohexane-1-carboxamide]",1000 to 10000
11,"Cc1cccc2c1CN([C@H]1CC[C@@H](C(=O)Nc3ccc(=O)[nH]c3)CC1)C2=O [Example 251, (1s,4s)-4-(4-Methyl-1-oxoisoindolin-2-yl)-N-(6-oxo-1,6-dihydropyridin-3-yl)cyclohexanecarboxamide]",> 10000
12,"COc1cc(NC(=O)[C@@H]2[C@@H]3C[C@@H](N4Cc5c(Br)cccc5C4=O)C[C@@H]32)ccc1C (single isomer, unassigned) [Example 269]",1000 to 10000
13,"COc1cc(NC(=O)[C@H]2CC[C@@H](N3Cc4c(ccc(Br)c4C)NC3=O)CC2)ccc1C [Example 63, (1s,4s)-4-(6-bromo-5-methyl-2-oxo-1,2-dihydroquinazolin-3(4H)-yl)-N-(3-methoxy-4-methylphenyl)cyclohexanecarboxamide]",1000 to 10000
14,"C=Cc1ccc2c(c1C)CN([C@H]1CC[C@@H](C(=O)Nc3ccc(C)c(OC)c3)CC1)C(=O)N2 [Example 53, (1s,4s)-N-(3-methoxy-4-methylphenyl)-4-(5-methyl-2-oxo-6-vinyl-1,2-dihydroquinazolin-3(4H)-yl)cyclohexanecarboxamide]",1000 to 10000
15,"CCc1ccc(NC(=O)[C@H]2CC[C@@H](N3Cc4c(C)cccc4C3=O)CC2)cc1C [Example 127, (1s,4s)-N-(4-Ethyl-3-methylphenyl)-4-(4-methyl-1-oxoisoindolin-2-yl)cyclohexane-1-carboxamide]",1000 to 10000
16,"COc1cc(NC(=O)[C@H]2CC[C@@H](N3Cc4c(O)cccc4C3=O)CC2)ccc1C [Example 197, (1s,4s)-4-(4-Hydroxy-1-oxoisoindolin-2-yl)-N-(3-methoxy-4-methylphenyl)cyclohexanecarboxamide]",1000 to 10000

# Second part, the compound after the results:
row,IC50 [nM],Compound
1,< 100,"COc1cc(NC(=O)[C@H]2CC[C@@H](N3Cc4c(C)cc(CN5CC[C@H](O)C5)cc4NC3=O)CC2)ccc1C (stereo in doubt) [Example 98, (1R,4s)-4-(7-(((S)-3-hydroxypyrrolidin-1-yl)methyl)-5-methyl-2-oxo-1,2-dihydroquinazolin-3(4H)-yl)-N-(3-methoxy-4-methylphenyl)cyclohexanecarboxamide]"
2,1000 to 10000,"COc1cc(NC(=O)[C@H]2CC[C@@H](N3Cc4c(N)cccc4C3=O)CC2)ccc1C [Example 154, (1s,4s)-4-(4-Amino-1-oxoisoindolin-2-yl)-N-(3-methoxy-4-methylphenyl)cyclohexanecarboxamide]"
3,< 100,"COc1cc(NC(=O)[C@H]2CC[C@@H](N3Cc4c(C)cnc(CNS(C)(=O)=O)c4NC3=O)CC2)ccc1C [Example 18, (1s,4s)-N-(3-Methoxy-4-methylphenyl)-4-(5-methyl-8-(methylsulfonamidomethyl)-2-oxo-1,2-dihydropyrido[3,4-d]pyrimidin-3(4H)-yl)cyclohexanecarboxamideoxamide]"
4,< 100,"COc1cc(NC(=O)[C@H]2CC[C@@H](N3Cc4c(C)cc([N+](=O)[O-])cc4C3=O)CC2)ccc1C [Example 167, (1s,4s)-N-(3-Methoxy-4-methylphenyl)-4-(4-methyl-6-nitro-1-oxoisoindolin-2-yl)cyclohexanecarboxamide]"
5,< 100,"C=Cc1ccc(C)c2c1NC(=O)N([C@H]1CC[C@@H](C(=O)Nc3ccc(C)c(OC)c3)CC1)C2 [Example 55, (1s,4s)-N-(3-Methoxy-4-methylphenyl)-4-(5-methyl-2-oxo-8-vinyl-1,2-dihydroquinazolin-3(4H)-yl)cyclohexanecarboxamide]"
6,100 to 1000,"CCc1ccc(NC(=O)[C@H]2CC[C@@H](N3Cc4c(C)cccc4NC3=O)CC2)cc1OC [Example 95, (1s,4s)-N-(4-ethyl-3-methoxyphenyl)-4-(5-methyl-2-oxo-1,2-dihydroquinazolin-3(4H)-yl)cyclohexanecarboxamide]"
7,< 100,"COc1cc(NC(=O)[C@H]2CC[C@@H](N3Cc4c(Br)cc(NCC5CCCN5)cc4C3=O)CC2)ccc1C (stereo partly shown) [Example 173, (1s,4s)-4-(4-Bromo-1-oxo-6-(pyrrolidin-2-ylmethylamino)isoindolin-2-yl)-N-(3-methoxy-4-methylphenyl)cyclohexanecarboxamide]"
8,< 100,"COc1cc(NC(=O)[C@H]2CC[C@@H](N3Cc4c(C)cc(CN5CC[C@@H](O)C5)cc4C3=O)CC2)ccc1C [Example 137, (1S,4s)-4-(6-(((R)-3-Hydroxypyrrolidin-1-yl)methyl)-4-methyl-1-oxoisoindolin-2-yl)-N-(3-methoxy-4-methylphenyl)cyclohexanecarboxamide]"
9,100 to 1000,"C=Cc1ccc(NC(=O)[C@H]2CC[C@@H](N3Cc4c(C)cccc4C3=O)CC2)cc1OC [Example 122, (1s,4s)-N-(3-Methoxy-4-vinylphenyl)-4-(4-methyl-1-oxoisoindolin-2-yl)cyclohexane-1-carboxamide]"
10,< 100,"COc1cc(NC(=O)[C@H]2CC[C@@H](N3Cc4c(C)ccc(O)c4NC3=O)CC2)ccc1C [Example 61, (1s,4s)-4-(8-hydroxy-5-methyl-2-oxo-1,2-dihydroquinazolin-3(4H)-yl)-N-(3-methoxy-4-methylphenyl)cyclohexanecarboxamide]"
11,100 to 1000,"COc1cc(NC(=O)[C@H]2CC[C@@H](N3Cc4c(ccc(OC)c4C)NC3=O)CC2)ccc1C [Example 51, (1s,4s)-N-(3-Methoxy-4-methylphenyl)-4-(6-methoxy-5-methyl-2-oxo-1,2-dihydroquinazolin-3(4H)-yl)cyclohexanecarboxamide]"
12,100 to 1000,"Cc1cc(NCCN(C)C)cc2c1CN([C@H]1CC[C@@H](C(=O)Nc3nc4ccccc4s3)CC1)C2=O [Example 129, (1s,4s)-N-(Benzo[d]thiazol-2-yl)-4-(6-((2-(dimethylamino)ethyl)amino)-4-methyl-1-oxoisoindolin-2-yl)cyclohexane-1-carboxamide]"
13,< 100,"COc1cc(NC(=O)[C@H]2CC[C@@H](N3Cc4c(Br)cc(NCC5CNC5)cc4C3=O)CC2)ccc1C [Example 177, (1s,4s)-4-(6-(Azetidin-3-ylmethylamino)-4-bromo-1-oxoisoindolin-2-yl)-N-(3-methoxy-4-methylphenyl)cyclohexanecarboxamide]"
14,100 to 1000,"COc1cc(NC(=O)[C@H]2CC[C@@H](n3[nH]c4c(Br)cccc4c3=O)CC2)ccc1C (single isomer, unassigned) [Example 160, (1s,4s)-4-(7-Bromo-3-oxo-1H-indazol-2(3H)-yl)-N-(3-methoxy-4-methylphenyl)cyclohexanecarboxamide]"
15,100 to 1000,"COc1cc(NC(=O)[C@H]2CC[C@@H](N3C(=O)c4c(C)ccc(C)c4C3=O)CC2)ccc1C [Example 253, (1s,4s)-4-(4,7-Dimethyl-1,3-dioxoisoindolin-2-yl)-N-(3-methoxy-4-methylphenyl)cyclohexanecarboxamide]"
